Reference: US7521432B2, “Compositions and methods for identifying agents which regulate chromosomal stability, gene activation and aging” (priority 2000, dated 2009)
Like-named read-outs stand apart in the source and are kept apart here.

Assays:
SIR2 family of enzymes = target: T1, SIR2 family of enzymes (Saccharomyces cerevisiae, UniProt P53686); experiment: HST2 steady-state reactions with NGD as alternative substrate to NAD; format: biochemical
T1 construct: Histidine tagged full length HST2 was recombinantly expressed and purified from Escherichia coli BL21DE3 bacteria; Histidine tag; made in house; host or cells: Escherichia coli BL21DE3
Description: The details of the reaction conditions are as described in the materials and methods section. This enzymatic process may be used to advantage to generate novel O-acetyl-nucleotide analogs. These analogs may be used in the development of inhibitors for SIR2 and SIR homologs, or for the proteins/enzymes that normally bind/utilize O-acetyl-ADP ribose. More importantly, these enzyme-derived nucleotide analogs may serve as potent therapeutics for cancer and aging, releasing the block for transcriptionally-silenced genes that have been inappropriately silenced during tumorigenesis and aging, as discussed earlier.
Typical HST2 steady-state reactions to monitor deacetylation of AcLys-14 H3 peptide or nicotinamide formation with nicotinamide guanine dinucleotide (NGD) as an alternative substrate to NAD were carried out at various concentrations of AcLys-14 H3 peptide (5-100 μM) and NGD (10-400 μM). During the linear portion of the initial velocity, the reactions were monitored by reverse phase HPLC analysis on a Beckman Ultrasphere column (4.6 mm×15 cm). Samples were injected in 0.05% trifluoroacetic acid (TFA)/H2O for 1 min before a linear gradient of 0-40% acetontrile in 1-41 min.

HST2 [1] = target: T2, HST2 (Saccharomyces cerevisiae, UniProt P53686); experiment: HST2 steady-state deacetylation reactions, substrate saturation curves (HPLC); format: biochemical, yeast
Description: Materials. [^3H]Acetyl-CoA (1.88 Ci/mmol) and Na-[^3H]-acetate (100,000 cpm/nmol) was from NEN Life Sciences Products. Nicotinamide, ADP-ribose, and nicotinamide adenine dinucleotide (NAD) were purchased from Sigma Chemical Company. Histone H3 peptide, […] and the Lysine 14 acetylated H3 peptide (AcLys-14), corresponding to the 20 amino-terminal residues of human histone H3 was synthesized by the Protein Chemistry Core Lab at Baylor College of Medicine. Histidine tagged full length HST2 was recombinantly expressed and purified from Escherichia coli BL21DE3 bacteria using a T7 polymerase-based expression. […] HST2 eluted at 200 mM imidazole and was determined to be >95% pure by scanning densitometry of commassie-stained SDS-PAGE. […] The peaks of absorbance at 214/260 nm were collected and subjected to mass spectral analysis. [^3H]-acetate was detected by liquid scintillation counting. […]
Typical HST2 steady-state reactions to monitor deacetylation of AcLys-14 H3 peptide or nicotinamide formation were carried out at 37° C. in 50 mM Tris, pH 7.5 buffer. Rates of product formation were determined at various concentrations of AcLys-14 H3 peptide (5-300 μM) and NAD^+ (5-600 μM). During the linear portion of the initial velocity, the reactions were quenched with TFA to 1% and product formation was monitored by the HPLC analysis described above. […]

[2] = system: poly(ADP-ribosyl)transferases and SIR2 enzymes; settings: poly(ADP-ribosyl)transferases and SIR2 enzymes exhibit similar values; read-out: Km values for NAD^+; cited from earlier work
HST2 [3] = target: T2, HST2; experiment: Rapid-reaction single turnover quench-flow analysis; format: biochemical, yeast; settings: HST2, excess NAD^+, sub-stoichiometric [^3H]-AcLys14 H3, 22±3° C., pH 7.5, single exponential fit
Description: FIGS. 5A-5C are a series of graphs showing that acetate is not a primary product of HST2-catalyzed histone/protein deacetylation. H3 peptide was stoichiometrically acetylated on Lys-14 by the histone acetyltransferase P/CAF and using [^3H]-AcCoA. Monoacetylated [^3H]-AcLys-14 H3 peptide was then purified by HPLC (FIG. 5A) and utilized as a substrate in the HST2 deacetylation reactions (FIG. 5B). Upon complete consumption of [^3H]-AcLys-14 H3 by HST2, all of the original [^3H] from H3 peptide was converted to a labeled product that eluted much later than authentic acetate. Conditions: 375 nM HST2, 175 μM NAD^+, 5 μM [^3H]-Lys14 AcH3, 1 mM DTT, for 1 min at 37° C. prior to quenching with TFA to a final concentration of 1%. FIG. 5C: Single turnover rapid quench-flow analysis. […] Quantification of [^3H]-AcLys14 H3 peptide (diamonds) and the [^3H]-acetate-adduct (circles) was accomplished by liquid scintillation counting of these species separated using reverse phase HPLC. […]
P/CAF [^3H]-monoacetylation of H3 peptide. […] Every mass spectrum was recorded as the sum of 20 consecutive spectra, each produced by a single pulse of photons. […] The amount of [^3H]-AcLys14 H3 peptide and [^3H]-O-acetyl ADP ribose was determined by liquid scintillation counting of these species separated on reverse phase HPLC. […]

T2 sequence (P53686 whole entry): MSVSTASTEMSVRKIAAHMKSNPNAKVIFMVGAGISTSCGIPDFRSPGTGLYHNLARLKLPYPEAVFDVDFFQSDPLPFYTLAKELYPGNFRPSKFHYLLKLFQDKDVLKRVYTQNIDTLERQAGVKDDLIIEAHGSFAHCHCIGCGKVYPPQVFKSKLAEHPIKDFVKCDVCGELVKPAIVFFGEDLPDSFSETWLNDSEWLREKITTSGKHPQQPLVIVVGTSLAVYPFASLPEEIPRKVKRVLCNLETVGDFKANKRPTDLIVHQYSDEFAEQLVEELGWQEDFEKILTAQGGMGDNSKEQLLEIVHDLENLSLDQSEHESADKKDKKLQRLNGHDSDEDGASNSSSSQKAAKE
T1 sequence (P53686 whole entry): as above

NC(=O)c1ccc[n+]([C@@H]2O[C@H](COP(=O)([O-])OP(=O)(O)OC[C@H]3O[C@@H](n4cnc5c(=O)[nH]c(N)nc54)[C@H](O)[C@@H]3O)[C@@H](O)[C@H]2O)c1 [NGD, nicotinamide guanine dinucleotide]
ability to serve as substrate, generating O-acetyl-NDP ribose product (SIR2 family of enzymes): can serve as substrates for the SIR2 family of enzymes

NC(=O)c1ccc[n+]([C@@H]2O[C@H](COP(=O)([O-])OP(=O)(O)OC[C@H]3O[C@@H](n4cnc5c(N)ncnc54)[C@H](O)[C@@H]3O)[C@@H](O)[C@H]2O)c1 [NAD^+, nicotinamide adenine dinucleotide]
Km (HST2 [1]; 37° C., 50 mM Tris pH 7.5, read-out: Km for NAD^+): 70 µM | Km [2]: 50 to 70 µM

ARTKQTARKSTGG(AcK)APRKQL [AcLys-14 H3, reference compound]
rate constant of AcLys-14 H3 peptide deacetylation (substrate consumption) (HST2 [3]): 2.0 ± 0.1 s⁻¹ | Km (HST2 [1]; estimated, read-out: Km for AcLys-14 H3): < 0.5 µM
